The values that follow are results of earlier work, collected in US20230345942A1, “CORONA VIRUS KILLING AGENT” (SANKEI CO., LTD., priority 2020, published 2023).

A value given as a limit tells only on which side of the number the result lay.

For data set [1] the following is noted: as qualified in the cell (undiluted solution / at usage concentration).
A further data set has as its system Novel coronavirus. On the set-up: key: ◯ Effective; ∇ Low efficacy; ⊚ Effective even in the presence of organic matter.
Another data set relates to Norovirus (alternative). On the set-up: key: ◯ Effective; ∇ Low efficacy; ⊚ Effective even in the presence of organic matter.
The test system of a further data set is Influenza. On the set-up: key: ◯ Effective; ∇ Low efficacy; ⊚ Effective even in the presence of organic matter.

In the case of `CCO` [Disinfecting ethanol, Ethanol], the Safety entry in data set [1] is “Flammable”. Moreover, the “Antiviral activity: Novel coronavirus” value in the data set on Novel coronavirus is reported as “◯”. The Antibacterial/fungal activity entry with bacteria, fungi is reported as “Broad range”. Also, the “Antiviral activity: Norovirus (alternative)” value with Norovirus (alternative) is “∇”. Moreover, the “Antiviral activity: Influenza” value with Influenza was “◯”.
With `OCl` [Sodium hypochlorite], the Safety entry in data set [1] is recorded as “hazardous”. The “Antiviral activity: Novel coronavirus” value with Novel coronavirus was “◯”. Also, the Antibacterial/fungal activity entry with bacteria, fungi was “Broad range”. In the data set on Norovirus (alternative), the “Antiviral activity: Norovirus (alternative)” value is recorded as “◯”. In the data set on Influenza, the “Antiviral activity: Influenza” value is given as “◯”.
For the compound `CCO` [alcohol], the “Concentration required for an inactivation effect on enveloped viruses” value in the data set on enveloped viruses is ≥ 70 % (v/v).
